Test results published in ChEMBL document CHEMBL1141079, “Cytostatic 6-arylpurine nucleosides. 6. SAR in anti-HCV and cytostatic activity of extended series of 6-hetarylpurine ribonucleosides” (J Med Chem, 2005).

How the values were obtained:
Hepatitis C virus = assay: Effective concentration required to reduce Hepatitis C virus; assay type: functional, Hepacivirus hominis
Homo sapiens = species on record: Homo sapiens; assay: Cytotoxic concentration required to reduce the cellular rRNA level in hepatitis C virus replicon cells
HL-60 [1] = assay: In vitro inhibitory concentration against human promyelocytic leukemia HL60 cell line; assay type: functional, cell-based
L1210 [2] = assay: In vitro inhibitory concentration against mouse leukemia L1210 cell line; assay type: functional, cell-based
CCRF-CEM = assay: In vitro inhibitory concentration against human T lymphoblastoid CCRF-CEM cell line; assay type: functional, cell-based
HeLa [3] = assay: In vitro inhibitory concentration against human cervix carcinoma HeLaS3 cell line; assay type: functional, cell-based
HeLa [4] = assay: In vitro inhibitory concentration against human cervix carcinoma HeLaS3 cell line; n.a. is not active; assay type: functional, cell-based
L1210 [5] = assay: In vitro inhibitory concentration against mouse leukemia L1210 cell line; n.a. is not active; assay type: functional, cell-based
HL-60 [6] = assay: In vitro inhibitory concentration against human promyelocytic leukemia HL60 cell line; n.a. is not active; assay type: functional, cell-based
[7] = Homo sapiens, CCRF-CEM, read-out: IC50

Row | Structure (SMILES) | EC90 (Hepatitis C virus) | CC50 (Homo sapiens) | IC50 (HL-60 [1]) | IC50 (L1210 [2]) | IC50 (CCRF-CEM; [7]) | IC50 (HeLa [3]) | IC50 (HeLa [4]) | IC50 (CCRF-CEM; ccrf-cem) | IC50 (L1210 [5]) | IC50 (HL-60 [6])
1 | OC[C@H]1O[C@@H](n2cnc3c(-c4ccccc4)ncnc32)[C@H](O)[C@@H]1O | 16.7 µM | 8.3 µM | 6.3 µM |  |  |  |  |  |  | 
2 | OC[C@H]1O[C@@H](n2cnc3c(-c4cccs4)ncnc32)[C@H](O)[C@@H]1O | 0.7 µM | 1.1 µM | 4.9 µM | 0.37 µM | 0.6 µM | 25 µM |  |  |  | 
3 | COc1ccc(-c2ncnc3c2ncn3C2O[C@H](CO)[C@@H](O)[C@H]2O)cc1 (stereo partly drawn) | > 100 µM | < 10 µM | 7.6 µM |  |  |  |  |  |  | 
4 | OC[C@H]1OC(n2cnc3c(-c4ccco4)ncnc32)[C@H](O)[C@@H]1O (stereo partly drawn) | 0.4 µM | 1.6 µM | 2.7 µM | 2 µM | 0.6 µM | 25 µM |  |  |  | 
5 | OC[C@H]1OC(n2cnc3c(-c4ccc(O)cc4)ncnc32)[C@H](O)[C@@H]1O (stereo partly drawn) | 2.6 µM | 5.2 µM | 7.6 µM | 5 µM | 1.25 µM | 32.5 µM |  |  |  | 
6 | OC[C@H]1OC(n2cnc3c(-c4cc[nH]c4)ncnc32)[C@H](O)[C@@H]1O (stereo partly drawn) | 0.14 µM | < 0.1 µM | 3.2 µM | 17.5 µM | 1.03 µM |  | Not Active |  |  | 
7 | OC[C@H]1OC(n2cnc3c(-c4cc[nH]n4)ncnc32)[C@H](O)[C@@H]1O (stereo partly drawn) | 0.8 µM | 0.6 µM | 1.17 µM | 19.8 µM | 0.75 µM |  | Not Active |  |  | 
8 | Cc1cc(-c2ncnc3c2ncn3C2O[C@H](CO)[C@@H](O)[C@H]2O)on1 (stereo partly drawn) | > 100 µM | > 100 µM |  |  |  |  | Not Active | Not Active | Not Active | Not Active
9 | Cn1nccc1-c1ncnc2c1ncn2C1O[C@H](CO)[C@@H](O)[C@H]1O (stereo partly drawn) | > 100 µM | > 100 µM |  |  |  |  | Not Active | Not Active | Not Active | Not Active
10 | Cc1csc(-c2ncnc3c2ncn3C2O[C@H](CO)[C@@H](O)[C@H]2O)n1 (stereo partly drawn) | > 100 µM | > 100 µM |  |  | 6 µM |  | Not Active |  | Not Active | Not Active
11 | OC[C@H]1OC(n2cnc3c(-c4cc5ccccc5o4)ncnc32)[C@H](O)[C@@H]1O (stereo partly drawn) | > 100 µM | > 100 µM |  |  | 15 µM |  | Not Active |  | Not Active | Not Active
12 | OC[C@H]1OC(n2cnc3c(-c4nccs4)ncnc32)[C@H](O)[C@@H]1O (stereo partly drawn) | 6 µM | 6.7 µM | 6.3 µM | 16 µM | 2.73 µM |  | Not Active |  |  | 
13 | Cc1csc(-c2ncnc3c2ncn3C2O[C@H](CO)[C@@H](O)[C@H]2O)c1 (stereo partly drawn) | 40.7 µM | 7 µM | 5.6 µM |  | 2.9 µM | 11.4 µM |  |  | Not Active | 
14 | OC[C@H]1OC(n2cnc3c(-c4ccc(F)cc4)ncnc32)[C@H](O)[C@@H]1O (stereo partly drawn) | 49.5 µM | 9.2 µM | 6.3 µM |  | 0.7 µM | 2.7 µM |  |  |  | 
15 | Cc1ccsc1-c1ncnc2c1ncn2C1O[C@H](CO)[C@@H](O)[C@H]1O (stereo partly drawn) | > 100 µM | > 100 µM | 4.5 µM |  | 2.5 µM | > 20 µM |  |  | Not Active | 
16 | Cn1cccc1-c1ncnc2c1ncn2C1O[C@H](CO)[C@@H](O)[C@H]1O (stereo partly drawn) | > 100 µM | > 100 µM | 15.7 µM |  | 2 µM |  | Not Active |  | Not Active | 
17 | OC[C@H]1OC(n2cnc3c(-c4ccccn4)ncnc32)[C@H](O)[C@@H]1O (stereo partly drawn) | 6 µM | 2.7 µM | 5.6 µM | 4.3 µM | 0.9 µM | 9.7 µM |  |  |  | 
18 | OC[C@H]1OC(n2cnc3c(-c4ccsc4)ncnc32)[C@H](O)[C@@H]1O (stereo partly drawn) | 0.82 µM | < 0.1 µM | 3.8 µM | 10.8 µM | 1.64 µM |  | Not Active |  |  | 
19 | OC[C@H]1OC(n2cnc3c(-c4ccoc4)ncnc32)[C@H](O)[C@@H]1O (stereo partly drawn) | 1.4 µM | 6.9 µM | 3.3 µM |  | 1.65 µM |  | Not Active |  | Not Active | 
20 | OC[C@H]1OC(n2cnc3c(-c4ccc(Cl)cc4)ncnc32)[C@H](O)[C@@H]1O (stereo partly drawn) | > 100 µM | > 100 µM |  |  |  |  |  |  | Not Active | Not Active
21 | C[C@@]1(O)[C@H](O)[C@@H](CO)O[C@H]1n1cnc2c(N)ncnc21 | 1.14 µM | 15 µM |  |  |  |  |  |  |  | 
